Measured values: patent US20100216876A1, “ANTIDIARRHETIC COMPOSITION, PRODUCT CONTAINING THE SAME AND METHOD OF PREVENTING DIAHHREA” (priority 2007, published 2010)

Tested on: intestinal Cl− secretion
Assay: Short-circuit current (Isc) measurement of cecum mucosa sample in Ussing chamber after forskolin
Type: cell-based, mouse
Description: A sample of large-intestinal mucosa was prepared in the following manner. A mouse was killed by cervical vertebra dislocation. After abdominal incision, the cecum was excised by cutting the boundary parts of the cecum with the small intestine and the large intestine. The cecum was cut open with scissors into a sheet. In order to completely remove the contents of the cecum, the cecum was pinched with tweezers and washed with a buffered solution. Then, a substitution fluid was placed in a petri dish covered with rubber, and the cecum was attached thereon with the serosa side up. Under conditions in which the buffered solution-in the petri dish was always aerated with 95% O2/5% CO2, the muscle layer was peeled using tweezers, and a sample composed of mucosa and submucosa was produced. The sample was divided into four pieces for the experiment.
Electrical analysis was carried out using this sample. FIG. 1 is a diagram showing an embodiment of measurement of short-circuit current (Isc) in Ussing chamber. The mucosa sample was placed between two Ussing-type chambers (window area: 0.2 cm^2) containing 5 ml of buffered solution. For the measurement of the electrical potential difference, a pair of calomel electrodes was connected to each chamber through a 1MKCl/2% agar salt bridge. For passing current, Ag/AgGl electrodes connected through a 1MNaCl/2% agar salt bridge were mounted. These electrodes were connected to a voltage clamp apparatus, and the short-circuit current (Isc) was measured. As for Isc, the current flowing from the mucosa side to the serosa side was positive.
The solutions to be administered were prepared as stock solutions so that the concentration of each solution was 1,000 times higher than the desired final concentration.

[1] = 20 μM on the serosa side after forskolin
[2] = 50 μM on the serosa side after forskolin

## CC1CCC(C(C)C)C(OCC(O)CO)C1 (stereo not drawn) [3-(l-menthoxy)propane-1,2-diol]
[1]
  Isc decrease: about 50 μA/cm^2
[2]
  Isc decrease: about 70 μA/cm^2

## CC(C)[C@@H]1CC[C@@H](C)C[C@H]1OCCO [2-(l-menthoxy)ethanol]
[1]
  Isc decrease: about 10 μA/cm^2
150 μM on the serosa side after forskolin
  Isc decrease: about 70 μA/cm^2

## CC(C)[C@@H]1CC[C@@H](C)C[C@H]1OCCCO
[1]
  Isc decrease: about 50 μA/cm^2
[2]
  Isc decrease: about 70 μA/cm^2

## CC(C)[C@@H]1CC[C@@H](C)C[C@H]1OCC(C)(O)CO (stereo partly drawn) [2-methyl-3-(l-menthoxy)propane-1,2-diol]
[1]
  Isc decrease: about 100 μA/cm^2
  action on Isc compared with menthol: almost equal to the administration of 500 μM of menthol
Serosa side after forskolin
  dose dependence of the Isc inhibitory effect: dose dependence was observed at doses up to 50 μM
